Assay results as given in PMC11571015, “Hybrids of Membrane-Translocating Antimicrobial Peptides Show Enhanced Activity through Membrane Permeabilization” (ACS Medicinal Chemistry Letters, 2024).
Values after ≈ are worked out from the molar mass of the structure shown.

Tests used:
[1] = test system: E. coli; assay type: cell-based, E. coli (Top10 Strain); details: median MIC; microbroth dilution, 1:2 serial dilution 18.2 to 1.8x10-2 μM, 4 × 10^6 CFU/mL, 1 h 37°C in wash buffer pH 7.4, then TSB overnight (18-24 h), OD600; triplicate per plate; mixture: each peptide at the reported concentration
Protocol: (§1) Supplemental Information for Trevellin et al.
(§2) Peptide design and preparation […]
(§3) synthesized by GenScript (Piscataway, NJ) at >95% purity determined by HPLC and dissolved in DI water. Concentrations were measured by triplicate tryptophan absorbance readings at 280 nm (ε=5700 M–1cm–1, l=1 cm) using a ThermoScientific NanoDrop 2000 (Waltham, MA). Buforin II (BF2) included an F10W mutation used in many previous studies1-5 to allow for concentration measurements.
(§4) Bacteria included E. coli (Top10 Strain, Invitrogen/ThermoFisher) containing a plasmid for ampicillin resistance (Novagen) and/or B. subtilis (ATCC #6051). Bacterial growth was performed in TSB (trypticase soy broth) prepared at 3% w/v (30 g of media in 1 L) from BD Difco unless otherwise noted. Overnight cultures were picked from petri dishes or frozen stock and grown for 14-16 hours at 37 °C in TSB with shaking. E. coli overnight cultures were incubated with 25 μg/mL ampicillin. The overnight cultures were then diluted 1:100 in 25 mL TSB and incubated at 37 °C with shaking for 2.5 h. The culture was pelleted via centrifugation at 1500×g for 10 min at room temperature and resuspended in sterile cold wash buffer (10 mM sodium phosphate buffer and 10 mM sodium chloride, pH 7.4). These resuspended bacteria were then used for radial diffusion, microbroth dilution, and propidium iodide assays. […]
(§5) Microbroth dilution assay
(§6) Microbroth dilution assays were used to determine the minimum inhibitory concentration (MIC) of each peptide for E. coli and B. subtilis (ATCC #6051). A 1:2 serial dilution was prepared for a peptide across the top row of a 96-well plate. 100 μL of bacterial suspension (4 × 10^6 CFU/mL, diluted in sterile wash buffer, 10 mM sodium phosphate buffer and 10 mM sodium chloride, pH 7.4) and 10 μL of peptide were mixed to each well in subsequent rows of the plate. The 11 effective peptide concentrations ranged from 18.2 μM to 1.8x10-2 μM, with DI water used as a control, and each concentration was tested in triplicate per plate. After the bacteria and peptide mixtures were incubated in plates at 37°C for 1 hour, 100 μL of 6% w/v TSB was added to each well. For wells containing E. coli, ampicillin was added at a final concentration of 25 µg/ml. The plate was then incubated overnight (18-24 h) at 37°C. After incubation, OD600nm were measured using the SpectraMax M3 microplate reader (Molecular Devices). […]
(§7) relative permeability = F5/F0
(§8) Each peptide was tested with bacteria grown from at least three distinct overnight […]
(§9) The MTS assay is a colorimetric viability assay for mammalian cells. HEK 293 cells (ATCC CRL-1573) were grown in complete growth medium (EMEM, 10% fetal bovine serum, 1% penicillin-streptomycin). Cells were cultured in a T-75 maintenance flask, fed with fresh media every 1-2 days, and passaged approximately every 5-7 days once cells reached 70-90% confluence. During passaging, HEK 293 cells were plated in a 96-well plate at 20,000 cells/well and incubated for 4-6 hours (37 °C, 95% humidity, 5% CO2). Each column of cells (8 replicates) was then incubated overnight with 18.2 µM peptide or a control. After incubation, media was aspirated and refreshed for each well, […]

[2] = test system: B. subtilis; assay type: cell-based, B. subtilis (ATCC #6051); details: 1 h, pH 7.4
Protocol: as §1, §2, §3, §4, §5, §6, §7, §8, §9

SMILES | MIC against E. coli [1] | MIC against B. subtilis [2]
CC[C@H](C)[C@H](NC(=O)[C@H](CCCNC(=N)N)NC(=O)[C@@H](NC(=O)[C@H](CCCCN)NC(=O)[C@H](CCCCN)NC(=O)[C@H](CC(N)=O)NC(=O)[C@H](CC(=O)O)NC(=O)[C@H](CCCNC(=N)N)NC(=O)[C@H](C)N)[C@@H](C)O)C(=O)N[C@@H](Cc1c[nH]c2ccccc12)C(=O)N1CCC[C@H]1C(=O)N[C@@H](CCCNC(=N)N)C(=O)N[C@@H](Cc1c[nH]cn1)C(=O)N[C@@H](CC(C)C)C(=O)N[C@@H](CCC(N)=O)C(=O)N[C@@H](CC(C)C)C(=O)N[C@@H](C)C(=O)N[C@H](C(=O)N[C@@H](CCCNC(=N)N)C(=O)N[C@@H](CC(N)=O)C(=O)N[C@H](C(=O)N[C@@H](CCCNC(=N)N)C(=O)N[C@@H](CO)C(=O)N[C@@H](CO)C(=O)N[C@@H](CCCNC(=N)N)C(=O)N[C@@H](C)C(=O)NCC(=O)N[C@@H](CC(C)C)C(=O)N[C@@H](CCC(N)=O)C(=O)N[C@@H](Cc1c[nH]c2ccccc12)C(=O)N1CCC[C@H]1C(=O)N[C@H](C(=O)NCC(=O)N[C@@H](CCCNC(=N)N)C(=O)N[C@H](C(=O)N[C@@H](Cc1c[nH]cn1)C(=O)N[C@@H](CCCNC(=N)N)C(=O)N[C@@H](CC(C)C)C(=O)N[C@@H](CC(C)C)C(=O)N[C@@H](CCCNC(=N)N)C(=O)N[C@@H](CCCCN)C(=O)O)C(C)C)C(C)C)[C@@H](C)O)C(C)C [DesHDAP1-BF2 (DB)] | 1.1 µM (≈ 5.42 µg/mL) | 4.6 µM (≈ 22.7 µg/mL)
CC[C@H](C)[C@H](NC(=O)[C@H](CCCNC(=N)N)NC(=O)[C@@H](NC(=O)[C@H](CCCCN)NC(=O)[C@H](CCCCN)NC(=O)[C@H](CC(N)=O)NC(=O)[C@H](CC(=O)O)NC(=O)[C@H](CCCNC(=N)N)NC(=O)[C@H](C)N)[C@@H](C)O)C(=O)N[C@@H](Cc1c[nH]c2ccccc12)C(=O)N1CCC[C@H]1C(=O)N[C@@H](CCCNC(=N)N)C(=O)N[C@@H](Cc1c[nH]cn1)C(=O)N[C@@H](CC(C)C)C(=O)N[C@@H](CCC(N)=O)C(=O)N[C@@H](CC(C)C)C(=O)N[C@@H](C)C(=O)N[C@H](C(=O)N[C@@H](CCCNC(=N)N)C(=O)N[C@@H](CC(N)=O)C(=O)N1CCC[C@H]1C(=O)N[C@H](C(=O)N[C@@H](CCCNC(=N)N)C(=O)N[C@@H](CO)C(=O)N[C@@H](CO)C(=O)N[C@@H](CCCNC(=N)N)C(=O)N[C@@H](C)C(=O)NCC(=O)N[C@@H](CC(C)C)C(=O)N[C@@H](CCC(N)=O)C(=O)N[C@@H](Cc1c[nH]c2ccccc12)C(=O)N1CCC[C@H]1C(=O)N[C@H](C(=O)NCC(=O)N[C@@H](CCCNC(=N)N)C(=O)N[C@H](C(=O)N[C@@H](Cc1c[nH]cn1)C(=O)N[C@@H](CCCNC(=N)N)C(=O)N[C@@H](CC(C)C)C(=O)N[C@@H](CC(C)C)C(=O)N[C@@H](CCCNC(=N)N)C(=O)N[C@@H](CCCCN)C(=O)O)C(C)C)C(C)C)[C@@H](C)O)C(C)C [DesHDAP1-P-BF2 (DPB)] | 1.1 µM (≈ 5.53 µg/mL) | 4.6 µM (≈ 23.1 µg/mL)
